*1 amine or outer side, *2 acyl side, *3 side chain or, on linkers, in order; H or OH if unused. Where a SMILES comes first, the peptide text is derived from it. Bridges are numbered along the chain shown (N, C = ends). Side-chain parts run from the residue outwards. [ ]: non-standard residue; d: D form. The star is where a group is joined. Me3N+CH2CH2(OCH2CH2)4CO = C[N+](C)(C)CCOCCOCCOCCOCCC(=O)*; PEG12 = NCCOCCOCCOCCOCCOCCOCCOCCOCCOCCOCCOCCOCCC(=O)O; X42 = O=C(O)CCCCCCCCCCCCCCCCC(=O)N[C@H](CO)CCC(=O)*; NH(CH2CH2O)2CH2CH2NMe3+ = C[N+](C)(C)CCOCCOCCN*; Trp(7-Me) = Cc1cccc2c(C[C@H](N)C(=O)O)c[nH]c12; C18 diacid = O=C(O)CCCCCCCCCCCCCCCCC(=O)*; X6 = CN(CC[C@H](N[*:1])C(=O)[*:2])[*:3]; γGlu = O=C(O)[C@H](CCC(=O)[*:2])N[*:1]; 2Nal = N[C@@H](Cc1ccc2ccccc2c1)C(=O)O; AEF = NCCOc1ccc(C[C@H](N)C(=O)O)cc1; X2 = C[N+](C)(C)C[C@@H](CC(=O)O)N*; 3Pal = N[C@@H](Cc1cccnc1)C(=O)O; NMeK = CN[C@@H](CCCCN)C(=O)O; Pen = CC(C)(S)[C@H](N)C(=O)O; Suc = O=C(CCC(=O)[*:2])[*:1]; Thp = NC1(C(=O)O)CCOCC1; AEEA = NCCOCCOCC(=O)O; Sar = CNCC(=O)O
Target: T1, IL-23R (Homo sapiens, UniProt Q5VWK5)
T1 construct: HEK293 cells containing IL-23R, IL-12Rβ1 and a firefly luciferase reporter gene driven by a STAT-inducible promoter (Promega); host or cells: HEK293
T1 sequence (Q5VWK5 24-629): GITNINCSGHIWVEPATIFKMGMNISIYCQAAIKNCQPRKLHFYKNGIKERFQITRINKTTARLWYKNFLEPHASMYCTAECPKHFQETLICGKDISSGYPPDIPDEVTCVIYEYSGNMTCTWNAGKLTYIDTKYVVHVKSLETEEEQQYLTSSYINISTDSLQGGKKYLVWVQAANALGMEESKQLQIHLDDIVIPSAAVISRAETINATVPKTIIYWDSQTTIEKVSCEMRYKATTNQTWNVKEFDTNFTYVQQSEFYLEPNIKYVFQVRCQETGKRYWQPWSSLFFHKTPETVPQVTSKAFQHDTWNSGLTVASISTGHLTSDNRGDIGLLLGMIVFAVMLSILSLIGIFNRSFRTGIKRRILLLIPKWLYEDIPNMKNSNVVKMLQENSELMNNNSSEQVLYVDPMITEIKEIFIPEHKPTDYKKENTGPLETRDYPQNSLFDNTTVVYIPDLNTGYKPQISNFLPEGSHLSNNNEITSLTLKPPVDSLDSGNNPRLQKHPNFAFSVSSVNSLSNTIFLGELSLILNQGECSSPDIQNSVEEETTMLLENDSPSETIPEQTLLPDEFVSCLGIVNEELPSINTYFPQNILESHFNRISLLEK
Assay: IL23R Reporter Assay
Assay type: cell-based
Conditions: HEK293 cells containing IL-23R, IL-12Rβ1 and STAT-inducible firefly luciferase reporter; 10 ng/mL IL-23 (EC90); 5 h
Protocol: Compounds were serially diluted in 100% (v/v) DMSO) and plated using an Echo acoustic dispenser (Labcyte) into 1536-well non-treated black assay plates (Corning #9146). 3 μL of HEK293 cells containing IL-23R, IL-12Rβ1 and a firefly luciferase reporter gene driven by a STAT-inducible promoter (Promega) were added to the plates (4000 cells/well), followed by 3 μL of 10 ng/mL IL-23 (equivalent to EC90 concentration). After 5 h at 37° C., 5% CO2, 95% relative humidity, cells were placed at 20° C. and treated with BioGlo reagent (Promega) according to the Manufacturer's instructions. Luminescence was measured on a Pherastar FSX (BMG LabTech). Data were normalized to IL-23 treatment (0% inhibition) and 30 μM of control inhibitor (100% inhibition), and IC50 values were determined using a 4-parameter Hill equation.

With `CC(=O)NCCCC[C@@H]1NC(=O)[C@H](Cc2c[nH]c3c(C)cccc23)NC(=O)[C@H]([C@@H](C)O)NC(=O)[C@H](CCCCNC(=O)CCC(=O)N[C@H](CC(=O)O)C[N+](C)(C)C)NC(=O)[C@@H](NC(=O)[C@@H](CCCNC(=N)N)NC(=O)COCCOCCNC(=O)COCCOCCNC(=O)CC[C@H](NC(=O)CCCCCCCCCCCCCCCCC(=O)O)C(=O)O)C(C)(C)SSC(C)(C)[C@@H](C(=O)N[C@@H](Cc2ccc(OCCN)cc2)C(=O)N[C@@H](Cc2ccc3ccccc3c2)C(=O)NC2(C(=O)N[C@@H](CCC(=O)O)C(=O)N[C@@H](CC(N)=O)C(=O)N[C@@H](Cc3cccnc3)C(=O)N(C)CC(N)=O)CCOCC2)NC1=O` [compound 47, HOC18gEPEG2PEG2CO-r-Pen(3)-K(d)-T-7MeW-K(Ac)-Pen(3)-AEF-2Nal-THP-E-N-3Pya-Sar-CONH2] ({C18 diacid-γGlu-AEEA-AEEA}-[dR][Pen]K([Suc-X2])T[Trp(7-Me)]K(Ac)[Pen][AEF][2Nal][Thp]EN[3Pal][Sar]-NH2; disulfide 2-7) as the molecule, how does the IC50 read?
The IC50 was under 50 nM.

Test system: IL-23-stimulated phosphorylated STAT3 in peripheral blood mononuclear cells (PBMCs)
Assay: PBMC pSTAT3 Assay
Assay type: cell-based
Conditions: PBMCs from healthy donors; 30 min preincubation with peptide; IL-23 5 ng/mL for 30 min; phospho-STAT3 by MSD
Protocol: Cryopreserved peripheral blood mononuclear cells (PBMCs) from healthy donors were thawed and washed twice in ImmunoCult-XF T cell expansion medium (XF-TCEM) supplemented with CTL anti-aggregate wash. The cells were counted, resuspended at 2-6×10^5 cells per mL XF-TCEM supplemented with penicillin/streptomycin and 100 ng/mL […] (BioLegend, 579404), and cultured in tissue culture flasks coated with anti-CD3 (eBioscience, 16-0037-85 or BD Pharmingen, 555329) at 37° C. in 5% CO2. On day 4 of culture, PBMCs were collected, washed twice in RPMI-1640 supplemented with 0.1% BSA (RPMI-BSA), and incubated in RPMI-BSA in upright tissue culture flasks for ~4 hours at 37° C. in 5% CO2. Following this 'starvation,' a total of 6×10^4 cells in 30 μL RPMI-BSA was transferred into each well of a 384-well plate pre-spotted with peptide or DMSO. The cells were incubated for 30 minutes prior to the addition of […] at a final concentration of 5 ng/mL. The cells were stimulated with cytokine for 30 minutes at 37° C. in 5% CO2, transferred onto ice for 10 minutes, and lysed. Cell lysates were stored at -80° C. until phosphorylated STAT3 was measured using the phospho-STAT panel kit (Meso Scale Discovery, […]). Results are provided below. • A: IC50<0.5 nM; • B: 0.5 nM≤IC50<5 nM; • C: 5 nM≤IC50; • ND: Not determined

With `CC(=O)NCCCC[C@@H]1NC(=O)[C@H](Cc2c[nH]c3c(C)cccc23)NC(=O)[C@H]([C@@H](C)O)NC(=O)[C@H](CC(N)=O)NC(=O)[C@@H](NC(=O)[C@@H](CCCCNC(=O)COCCOCCNC(=O)COCCOCCNC(=O)CC[C@@H](CO)NC(=O)CCCCCCCCCCCCCCCCC(=O)O)NC(C)=O)C(C)(C)SSC(C)(C)[C@@H](C(=O)N[C@@H](Cc2ccc(OCCNC(=O)CCC(=O)N[C@H](CC(=O)O)C[N+](C)(C)C)cc2)C(=O)N[C@@H](Cc2ccc3ccccc3c2)C(=O)NC2(C(=O)N[C@@H](CCC(=O)O)C(=O)N[C@@H](CC(N)=O)C(=O)N[C@@H](Cc3cccnc3)C(=O)N(C)CC(N)=O)CCOCC2)NC1=O` [compound 17, MeCO-k(PEG2PEG2gEC18OH)-Pen(3)-N-T-7MeW-K(Ac)-Pen(3)-AEF(d)-2Nal-THP-E-N-3Pya-Sar-CONH2] (Ac-[dK]([AEEA-AEEA-X42])[Pen]NT[Trp(7-Me)]K(Ac)[Pen][AEF]([Suc-X2])[2Nal][Thp]EN[3Pal][Sar]-NH2; disulfide 2-7) as the molecule, how does the IC50 read?
The IC50 was under 0.5 nM.

With `Cc1cccc2c(C[C@@H]3NC(=O)[C@H]([C@@H](C)O)NC(=O)[C@H](CC(=O)N(C)C)NC(=O)[C@@H](NC(=O)CCOCCOCCOCCOCC[N+](C)(C)C)C(C)(C)SSC(C)(C)[C@@H](C(=O)N[C@@H](Cc4ccc(OCCN)cc4)C(=O)N[C@@H](Cc4ccc5ccccc5c4)C(=O)NC4(C(=O)N[C@@H](CCC(=O)O)C(=O)N[C@@H](CC(N)=O)C(=O)N[C@@H](Cc5cccnc5)C(=O)N(C)[C@@H](CCCCNC(=O)CCOCCOCCOCCOCCOCCOCCOCCOCCOCCOCCOCCOCCNC(=O)CC[C@H](NC(=O)CCCCCCCCCCCCCCCCC(=O)O)C(=O)O)C(N)=O)CCOCC4)NC(=O)[C@H](CCN(C)C(=O)CCOCCOCCOCCOCC[N+](C)(C)C)NC3=O)c[nH]c12` [compound 111, cPEG5aCO-Pen(3)-N(N(Me)2)-T-7MeW-Dab(NMecPEG5a)-Pen(3)-AEF-2Nal-THP-E-N-3Pya-NMeK(PEG12gEC18OH)-CONH2] ({Me3N+CH2CH2(OCH2CH2)4CO}-[Pen]D(NMe2)T[Trp(7-Me)][X6](Me3N+CH2CH2(OCH2CH2)4CO)[Pen][AEF][2Nal][Thp]EN[3Pal][NMeK]([PEG12-γGlu-C18 diacid])-NH2; disulfide 1-6) as the molecule, how does the IC50 read?
Its IC50 is under 0.5 nM.

`CC(=O)NCCCC[C@@H]1NC(=O)[C@H](Cc2c[nH]c3c(C)cccc23)NC(=O)[C@H]([C@@H](C)O)NC(=O)[C@H](CC(N)=O)NC(=O)[C@@H](NC(=O)[C@@H](CCCNC(=N)N)NC(C)=O)C(C)(C)SSC(C)(C)[C@@H](C(=O)N[C@@H](Cc2ccc(OCCNC(=O)CCC(=O)N[C@H](CC(=O)O)C[N+](C)(C)C)cc2)C(=O)N[C@@H](Cc2ccc3ccccc3c2)C(=O)NC2(C(=O)N[C@@H](CCC(=O)O)C(=O)N[C@@H](CC(N)=O)C(=O)N[C@@H](Cc3cccnc3)C(=O)N(C)[C@@H](CCCCNC(=O)COCCOCCNC(=O)COCCOCCNC(=O)CC[C@H](NC(=O)CCCCCCCCCCCCCCCCC(=O)O)C(=O)O)C(N)=O)CCOCC2)NC1=O` [compound 16, MeCO-r-Pen(3)-N-T-7MeW-K(Ac)-Pen(3)-AEF(d)-2Nal-THP-E-N-3Pya-NMeK(PEG2PEG2gEC18OH)-CONH2] (Ac-[dR][Pen]NT[Trp(7-Me)]K(Ac)[Pen][AEF]([Suc-X2])[2Nal][Thp]EN[3Pal][NMeK]([AEEA-AEEA-γGlu-C18 diacid])-NH2; disulfide 2-7) was tested. Which IC50 did it give?
The IC50 was under 0.5 nM.

`CC(=O)NCCCC[C@@H]1NC(=O)[C@H](Cc2c[nH]c3c(C)cccc23)NC(=O)[C@H]([C@@H](C)O)NC(=O)[C@H](CC(N)=O)NC(=O)[C@@H](NC(C)=O)C(C)(C)SSC(C)(C)[C@@H](C(=O)N[C@@H](Cc2ccc(OCCCCC[N+](C)(C)C)cc2)C(=O)N[C@@H](Cc2ccc3ccccc3c2)C(=O)NC2(C(=O)N[C@@H](CCCCNC(=O)COCCOCCNC(=O)COCCOCCNC(=O)CC[C@H](NC(=O)CCCCCCCCCCCCCCCCC(=O)O)C(=O)O)C(=O)N[C@@H](CC(N)=O)C(=O)N[C@@H](Cc3ccccn3)C(=O)N(C)CC(N)=O)CCOCC2)NC1=O` [compound 85, MeCO-Pen(3)-N-T-7MeW-K(Ac)-Pen(3)-TMAPF-2Nal-THP-K(PEG2PEG2gEC18OH)-N-3Pya-Sar-CONH2] was tested. Which IC50 did it give?
Its IC50 is under 0.5 nM.

How did the IC50 turn out when `CC(=O)NCCCC[C@@H]1NC(=O)[C@H](Cc2c[nH]c3c(C)cccc23)NC(=O)[C@H]([C@@H](C)O)NC(=O)[C@H](CC(N)=O)NC(=O)[C@@H](NC(=O)[C@@H](CCCNC(=N)N)NC(C)=O)C(C)(C)SSC(C)(C)[C@@H](C(=O)N[C@@H](Cc2ccc(OCCN)cc2)C(=O)N[C@@H](Cc2ccc3ccccc3c2)C(=O)NC2(C(=O)N[C@@H](CCC(=O)O)C(=O)N[C@@H](CC(N)=O)C(=O)N[C@@H](Cc3cccnc3)C(=O)N(C)CC(=O)N[C@@H](CCCCNC(=O)COCCOCCNC(=O)COCCOCCNC(=O)CC[C@H](NC(=O)CCCCCCCCCCCCCCCCC(=O)O)C(=O)O)C(=O)NCCOCCOCC[N+](C)(C)C)CCOCC2)NC1=O` [compound 40, MeCO-r-Pen(3)-N-T-7MeW-K(Ac)-Pen(3)-AEF-2Nal-THP-E-N-3Pya-Sar-K(PEG2PEG2gEC18OH)-CONH(PEG3a)] (Ac-[dR][Pen]NT[Trp(7-Me)]K(Ac)[Pen][AEF][2Nal][Thp]EN[3Pal][Sar]K([AEEA-AEEA-γGlu-C18 diacid])-{NH(CH2CH2O)2CH2CH2NMe3+}; disulfide 2-7) was run?
Its IC50 is 0.5 to 5 nM.

How did the IC50 turn out when `CC(=O)NCCCC[C@@H]1NC(=O)[C@H](Cc2c[nH]c3c(C)cccc23)NC(=O)[C@H]([C@@H](C)O)NC(=O)[C@H](CC(N)=O)NC(=O)[C@@H](NC(C)=O)C(C)(C)SSC(C)(C)[C@@H](C(=O)N[C@@H](Cc2ccc(OCCCCC[N+](C)(C)C)cc2)C(=O)N[C@@H](Cc2ccc3ccccc3c2)C(=O)NC2(C(=O)N[C@@H](CCCCNC(=O)COCCOCCNC(=O)COCCOCCNC(=O)CC[C@H](NC(=O)CCCCCCCCCCCCCCCCC(=O)O)C(=O)O)C(=O)N[C@@H](N)C(=O)N[C@@H](Cc3ccccn3)C(=O)N(C)CC(N)=O)CCOCC2)NC1=O` [compound 86, MeCO-Pen(3)-N-T-7MeW-K(NMecPEG3a)-Pen(3)-AEF-2Nal-THP-K(PEG2PEG2gEC18OH)-N-3Pya-Sar-CONH2] was run?
Its IC50 is under 0.5 nM.

— patent US20260250320A1, “LIPIDATED PEPTIDE INHIBITORS OF INTERLEUKIN-23 RECEPTOR” (Janssen Pharmaceutica NV, priority 2023, published 2026)
